This note sets out measurements from PMC4830886, “Extended evaluation on the ES-D3 cell differentiation assay combined with the BeWo transport model, to predict relative developmental toxicity of triazole compounds” (Archives of Toxicology, 2015).

The nature of data set [1]: WST-1 cytotoxicity assay with ES-D3 cells. Particulars: mouse, ES-D3 embryonic stem cells, WST-1, 5-day exposure, read-out: decline in cell viability. The class given is cell-based. The protocol: (§1) The murine ES-D3 cell line was purchased from ATCC (Wesel, Germany). The cells were maintained in polystyrene cell culture flasks (Corning, The Netherlands) in Dulbecco’s modified Eagle’s medium (DMEM, Invitrogen, Breda, The Netherlands), supplemented with 20 % heat-inactivated fetal calf serum (Lonza, BioWhittaker, Verviers, Belgium), 50 U/ml penicillin with 50 μg/ml streptomycin (Invitrogen), 2 mM L-glutamine (Invitrogen), 0.1 mM β-mercaptoethanol (Sigma-Aldrich) and 1 % (v/v) nonessential amino acids (Invitrogen), at 37 °C and 5 % CO2 in a humidified atmosphere. Cells were kept undifferentiated with 1000 U/ml murine leukemia inhibiting factor (LIF) (Sigma-Aldrich) and subcultured every 2–3 days using nonenzymatic cell dissociation solution (Sigma-Aldrich) to detach the cells.
To determine cytotoxicity of the compounds, a WST-1 assay was performed. This assay measures the influence of test compounds on the formation of the water-soluble formazan reaction product from WST-1 by mitochondrial succinate-tetrazolium reductase enzymes. The cytotoxicity of a test compound inversely correlates with the absorbance of the produced formazan quantified spectrophotometrically as described previously (Reitsma et al. [2013]). ES-D3 cells were exposed to test compounds for the duration of 1 or 5 days as described before (Li et al. [2015]). Briefly, cells were seeded in 96-well plates (Greiner bio-one) at concentrations of 20 × 10^4 cells/ml (1-day exposure) or 1 × 10^4 cells/ml (5-day exposure) in 100 μl culture medium in the absence of LIF and incubated for 1 day to allow cell adherence. Then, the cells were exposed to the test compounds at concentrations up to 60 μM (final solvent concentration 0.2 % DMSO) and subsequently cultured for 1 or 5 days at 37 °C and 5 % CO2 in a humidified atmosphere. Solvent DMSO (0.2 %) was used as a negative control and 1 % Triton X-100 served as a positive control in all cytotoxicity assays. After incubation of 1 or 5 days, 20 μl WST-1 reagent (Roche, Woerden, The Netherlands) was added to each well and the plates were incubated for another 3 h. Then, absorbance was measured at 450 nm using a SpectraMax M2 (Molecular Devices, Sunnyvale, USA). Three wells were used per treatment in each independent experiment. Three independent experiments were done for each compound. The cell viability was expressed as % of the solvent control, with the solvent control set at 100 % viability. Reproducible results were obtained from the treatments of negative and positive controls in all of the cytotoxicity assays.
A general note: Formazan colour is commonly taken as a measure of viable cells.

The subject of a further data set is ES-D3 cells. Kind of data set: ES-D3 cell differentiation assay (differentiation into contracting cardiomyocytes). The class given is cell-based, mouse. The settings on record: for Corrected BMCd50: BMCd50 divided by relative Papp value (BeWo model); for IC50: Mus musculus, Cardiomyocyte, 240 h, concentration for 50 % reduction in number of differentiated EBs, BMD modelling, day 10, read-out: BMCd50. The protocol:
as §1
Differentiation assays were carried out to detect the effect of test compounds on the differentiation of ES-D3 cells into contracting cardiomyocytes using culture medium in the absence of LIF. On day 1, droplets of 20 μl cell suspension (3.75 × 10^4 cells/ml) were placed as hanging drops, to which the test compounds 0594, 0595, 0596, 0599, 0600 and 0618 were added at concentrations ranging from 0.2 to 60 μM (final solvent concentration 0.2 % DMSO), on the inner side of the lid of a 96-well plate. Sterile lids of Eppendorf tubes were placed on the corner wells of the plates to prevent contact of the drops with the plate. The wells of the 96-well plate were filled with 250 μl phosphate buffered saline (PBS) (Invitrogen), and the plate was sealed with Micropore tape (3M, Neuss, Germany) to prevent evaporation of the hanging drops. Plates were incubated for 3 days at 37 °C and 5 % CO2 in a humidified atmosphere. In the drops, cells formed embryonic bodies (EBs), which were transferred to nontissue culture-treated Petri dishes (diameter 6 cm, Greiner) with 5 ml of medium with test compound. On day 5, the EBs were transferred to a 24-well plate (Corning) with 1 ml of medium with test compound, with one EB per well. On day 10, the number of wells containing contracting EBs was determined by visual inspection using a light microscope. Solvent control (0.2 % DMSO in culture medium) was included in each experiment. The solvent control was also used to assess the quality of the batch of ES-D3 cells used in each individual test (cells being randomly distributed over test groups and solvent control). Tests were accepted for further analysis if at least 21 of the 24 wells of the solvent control contained contracting cardiomyocytes. For each test compound, three independent assays were performed. The results were expressed as “fraction of total,” with 1.0 implying all EBs in one 24-well plate differentiated into contracting cardiomyocytes.
Different dichotomous concentration–response models were fitted to the in vitro developmental toxicity data obtained from the ES-D3 cell differentiation assay to calculate benchmark concentrations (BMC) using Environmental Protection Agency benchmark dose (BMD) software version 2.4. For each test compound, the BMCd50, representing the concentration for a 50 % reduction in the number of differentiated EBs, was derived. Models included in the evaluation were the gamma, logistic, loglogistic, probit, logprobit, multistage, weibull and the quantal-linear model. […] The lowest BMCd50 value was chosen from the accepted models.
To combine in vitro developmental toxicity data obtained from the ES-D3 cell differentiation assay with placental transfer data obtained from the BeWo transport model, a corrected BMCd50 value was calculated by dividing the BMCd50 values by the relative Papp values, as described in Li et al. ([2015]).

As to `CC(c1nc(-c2ccc(C#N)cc2)cs1)C(O)(Cn1cncn1)c1ccc(F)cc1` (stereo not drawn) [compound 0596, 4-{2-[2-(4-Fluoro-phenyl)-2-hydroxy-1-methyl-3-[1,2,4]triazol-1-yl-propyl]-thiazol-4-yl}-benzonitrile], in data set [1], the cytotoxicity at 5 days, 60 µM was 70%. Moreover, in the data set on ES-D3 cells, the “Corrected BMCd50” value is on record as 18.1 µM and the IC50 was found to be 11.4 µM.

`CC1CC(C)OC(Cn2cncn2)(c2ccc(Oc3ccc(Cl)cc3)cc2Cl)O1` (stereo not drawn) [compound 0600, 1-[[2-[2-Chloro-4-(4-chlorophenoxy)phenyl]-4,6-dimethyl-1,3-dioxan-2-yl]methyl]-1,2,4-triazole]: the cytotoxicity at 5 days, 60 µM in data set [1] is 20%. Further, in the data set on ES-D3 cells, the “Corrected BMCd50” value came to 21.0 µM and the IC50 came out at 4.2 µM.

Take `CC(c1nc(-c2ccc(C#N)cc2)cs1)C(O)(Cn1ccnc1)c1ccc(F)cc1` (stereo not drawn) [compound 0599, 4-[2-[2-(4-Fluorophenyl)-2-hydroxy-3-imidazol-1-yl-1-methyl-propyl]thiazol-4-yl]benzonitrile]: in data set [1], the cytotoxicity at 5 days, 60 µM was 80%. For the same compound, in the data set with ES-D3 cells, the “Corrected BMCd50” value was 3.8 µM and the IC50 worked out at 1.8 µM.

On to `OC(c1cccnc1)c1c(-c2ccc(F)cc2F)noc1-c1ccc(Cl)cc1F` (stereo not drawn) [compound 0594, [5-(4-Chloro-2-fluoro-phenyl)-3-(2,4-difluoro-phenyl)-isoxazol-4-yl]-pyridin-3-yl-methanol], for which the cytotoxicity at 5 days, 60 µM in data set [1] amounted to 30%. In the data set on ES-D3 cells, the “Corrected BMCd50” value is on record as 23.3 µM and the IC50 turned out to be 6.9 µM.

For the compound `OC(c1cccnc1)c1c(-c2ccc(F)cc2F)csc1-c1ccc(F)cc1F` (stereo not drawn) [compound 0595, [2,4-Bis-(2,4-difluoro-phenyl)-thiophen-3-yl]-pyridin-3-yl-methanol], the cytotoxicity at 5 days, 60 µM in data set [1] came to 20%. For the same compound, in the data set with ES-D3 cells, the “Corrected BMCd50” value came to 141.8 µM and the IC50 came to 11 µM.
